Measured values as given in patent US9597360B2, “Method of treatment for pulpitis and/or enhancement for dentinogenesis” (National Center for Geriatrics and Gerontology, priority 2008, dated 2017).

Experiments:
[1] = test system: Human umbilical vein endothelial cells (HUVECs); assay: Proliferative effect on endothelial cells (Tetra-color one, 450 nm absorbance); assay type: cell-based; conditions: HUVEC
Procedure: Human umbilical vein endothelial cells (HUVECs) (KURABO Industries, Osaka,) were seeded with 1,000 cells per 96 well. […] Ten μl of Tetra-color one (Seikagaku Kogyo, Co., Tokyo, Japan) was added to the 96 well plate, and cell numbers were measured using spectrophotometer at 450 nm absorbance at 2, 12, 24, 36, 48, 60 hours of culture. Wells without cells were served as negative controls.

HUVEC [2] = assay: Modified Boyden chamber migration assay; assay type: cell-based, human
Procedure: Modified Boyden chamber assay was performed at 37° C. with a PET membrane (BD Bioscience, Franklin Lakes, N.J.) of 24 well for 24 hours. In the presence of 10 ng/ml of MMP3, 100 ng/ml of MMP3, 100 ng/ml of MMP3 and 0.13 μmol of NNGH, 50 ng/ml of MMP10, 50 ng/ml of MMP10 and 0.13 μmol of NNGH, 0.13 μmol of NNGH only, or 50 ng/ml of VEGF-A, 5×10^4 cells of HUVEC was cultured in the upper part of the chamber. As a control, a 0.02% bovine serum albumin (Sigma) was used. After incubations, HUVEC which migrated to the lower part of the membrane was detached by trypsin treatment and counted. […] The data represented the mean±SD of 4 samples.

HUVEC [3] = assay: Anti-apoptotic effect, staurosporine-induced apoptosis (Annexin V-FITC/Propidium Iodide flow cytometry); assay type: cell-based, human
Procedure: NNGH was added 30 minutes before adding MMP3. As a control, cells were cultured in EBM-2 without adding any in the presence of staurosporine. Four hours later, HUVEC was detached from the dish and stained with Annexin V-FITC (Roche) and Propidium Iodide (Sigma) in a cell suspension for 15 minutes and measured ratio of necrosis and apoptosis in flow cytometer JSAN (Bay Bioscience, Kobe).

[4] = test system: amputated pulp of rat upper incisor; assay: Rat pulp amputated model; assay type: in vivo
Procedure: After pulpotomy of rat upper incisor, and wash with a saline, 50 ng of MMP3 adsorbed in spongel was applied to the amputated pulp. As a control, 50 ng of MMP3 and 30 nmol NNGH adsorbed in spongel was applied to the amputated pulp. The cavity was temporally sealed with a bonding agent and a photopolymerization type composite resin (Unifil low flow, GC, Tokyo). 24 hours, 72 hours, or 7 days after application, the paraffin sections of the 5 μm thickness were examined morphologically after HE staining or Masson Trichrome staining.
For quantitative analysis of newly formed blood vessels, each 5 frozen sections at 24 hours after treatment both with MMP3 and control PBS from 4 incisors each, total 40 sections were stained with Fluorescein Griffonia (Bandeiraea) Simplicifolia lectin (BS1-lectin) as described above. Three rectangles of a standardized size (0.1 mm^2) were drawn in the upper part of pulp tissue under the amputated site in every five sections from one sample. The lectin-positive area relative to total area (1.5 mm^2) was quantitatively analyzed in a standardized procedure using BZ-II Analyzer (Keyence) software on a Keyence BZ-9000 fluorescence microscope (Keyence, Tokyo, Japan). The data were presented as means±standard deviation at 4 determinations.
To evaluate effect of MMP3 on proliferation, immunohistochemical analysis of Proliferating Cell Nuclear Antigen (PCNA) was performed. Paraffin sections of 24 hours after treatment were deparaffinized and antigen was retrieved by antigen unmasking solution (Vector Laboratories, Burlingame, Calif.) according to the manufacturer's instructions. Endogenous peroxidase activity and nonspecific staining were blocked as described earlier. The sections were incubated with anti-PCNA antibody (Dako) at dilutions of 1:100 in antibody diluent (Dako) overnight at 4° C., and further incubated with a peroxidase-conjugated secondary antibody (ImmPRESS reagent; Vector Laboratories) for 30 min at room temperature. After development by DAB Liquid System (Dako), sections were counterstained with hematoxylin, and photographed on an Olympus Vanox-s microscope (Olympus, Tokyo, Japan). For quantitative analysis of proliferating cells, each 3 paraffin sections at 24 hours after treatment both with MMP3 and control PBS from 4 incisors each were used. Three rectangles of a standardized size (0.1 mm^2) were drawn in the upper part of pulp tissue under the amputated site in every 3 sections. The positive staining cells were counted and quantitatively analyzed. The data were presented as means±standard deviation at 4 determinations.
For quantitative analysis of matrix formation, each 5 paraffin sections at 72 hours after treatment both with MMP3 and control PBS from 4 incisors each, and 5 sections at 7 days after treatment with MMP3, NNGH, and control PBS from 4 incisors each were stained with Masson's trichrome staining. The positive area was quantitatively analyzed in the upper part of pulp tissue under the amputated site, 2 mm in depth from the amputated site, using BZ-II Analyzer software. The data were presented as means±standard deviation at 4 determinations.

[5] = test system: pulp cells from rat upper incisor; assay: Induction of odontoblast differentiation using pulp cells (Dspp, enamelysin real-time RT-PCR); assay type: cell-based; conditions: MMP3 100 ng/ml, 14 days and 21 days
Procedure: Pulp cells were isolated from rat upper incisor by the trypsin and collagenase digestion method and cultured in DMEM (Sigma, St. Louis, Mo., USA) including L-ascorbic acid phosphoric acid magnesium salt (Wako pure medicine) and 10% of […] fetal bovine serum (SAFC Biosciences, Lenexa, Kans., USA) and 100 unit/ml penicillin G, 100 μg/ml streptomycin (Invitrogen, Carlsbad, Calif., USA). MMP3 was added 100 ng/ml of MMP3, or 0.13 μmol of NNGH and 50 ng/ml human recombinant BMP2 to the cells at second passage of culture after confluence. Total RNA was extracted 14 days or 21 days after and analyzed expression of odontoblastic differentiation markers, dentin sialophosphoprotein (Dspp) and enamelysin by Real-time RT-PCR (table 1). […] When MMP3 was added, the differentiation inductive effect into odontoblasts in particular was […] in comparison without adding MMP3 of the control 14 days and 21 days after treatment.

[6] = test system: amputated pulp of dog upper premolar teeth; assay: Dog pulpotomy model; assay type: in vivo; conditions: 100 ng MMP3 in spongel, 14 days
Procedure: After pulpotomy of dog upper premolar teeth, the amputated pulp was washed with 5% sodium hypochlorite solution and 3% hydrogen peroxide and further was washed with a saline, 100 ng of MMP3 absorbed in spongel was applied on the amputated pulp. Furthermore, the cavity was provisionally filled with phosphate cement and sealed with a chemical polymerization composite resin after application of a bonding agent. The tooth was extracted 14 days after treatment and fixed with 4% paraformaldehyde fixation at 4° C. overnight and decalcified at 4° C. in 10% formic acid for one week. Reparative dentin formation was observed after HE staining under light microscopy in the longitudinal paraffin 5 μm-section.

[7] = test system: inflamed pulp (pulpitis) of dog upper premolar tooth; assay: Dog pulpitis model; assay type: in vivo
Procedure: The inflammation of the pulp was produced be open with cotton for 24 hours after pulpotomy in the dog upper premolar tooth. Subsequently 100 ng of MMP3 absorbed in spongel was applied to the amputated pulp after washing with 5% sodium hypochlorite solution and 3% hydrogen peroxide and further with a saline. Furthermore, the cavity was filled with phosphate cement and temporally sealed with a chemical polymerization composite resin after application with a bonding agent. The tooth was extracted 14 days later, immersed at 4° C. overnight and followed by fixation and decalcification at 4° C. in 10% formic acid for one week. The reparative dentin formation was observed by an light microscope after H.E. staining at 5 μm-paraffin sections. FIG. 11A is a figure of micrograph showing healing of pulpitis state 14 days after MMP3 application in the upper premolar tooth of the dog in which pulpitis had been produced. FIG. 11B is a figure of micrograph of the high power to show healing of pulpitis state 14 days after MMP3 application in the upper premolar tooth of the dog in which pulpitis had been produced. FIG. 11C is a figure of micrograph 14 days in case of the PBS control of the upper premolar tooth of the dog in which pulpitis produces had been produced. FIG. 11D is a figure of micrograph of the high power 14 days in case of the PBS control of the upper premolar tooth of the dog n which pulpitis had been produced.

Compound: COc1ccc(S(=O)(=O)N(CC(=O)NO)CC(C)C)cc1 [NNGH, N-Isobutyl-N-(4-methoxyphenylsulfonyl)-glycylhydroxamic acid, reference compound]
- proliferative effect of MMP3 when NNGH added at the same time ([1]; MMP3 50 ng/mL with NNGH 0.13 μM): restrained
- proliferative effect in comparison with the no addition group of MMP3 ([1]; NNGH added): almost the same
- migration effect of MMP3 when NNGH added at the same time (HUVEC [2]; HUVEC, 100 ng/ml MMP3 and 0.13 μmol NNGH): inhibited
- anti-apoptotic effect of MMP3 when NNGH added at the same time (HUVEC [3]; 50 ng/ml MMP3 with 0.13 μmol NNGH, staurosporine 100 nM): inhibited
- dentin matrix formation in comparison with PBS control group ([4]; 7 days after pulpotomy, P<0.01): Significant decrease

Compound: CN[C@@H]1C[C@H]2O[C@@](C)([C@@H]1OC)n1c3ccccc3c3c4c(c5c6ccccc6n2c5c31)C(=O)NC4 [Staurosporine, reference compound]
- apoptosis, % of cells (HUVEC [3]; Staurosporine 100 nM alone, four hours): 52%

Compound: MMP3: human MMP3 (Chemicon); protein of the MMP family, referred to as stromelysin 1; active ingredient of the medicament
- increase of proliferation, 48-hour application in comparison with 2-hour application ([1]; MMP3 50 ng/mL): approximately 10 times
- migration promotion effect on HUVEC in comparison with control (HUVEC [2]; 10 ng/ml, 24 hours): significant difference was not detected
- migration of HUVEC, increase compared with the control (HUVEC [2]; 100 ng/ml, 24 hours, control 0.02% bovine serum albumin): approximately 3.5 times
- apoptotic cells (HUVEC [3]; MMP3 50 ng/ml added at the same time of Staurosporine 100 nM, four hours): 20%
- differentiation inductive effect into odontoblasts (Dspp, enamelysin mRNA) in comparison with control without MMP3 [5]: not seen
- PCNA positively staining cells ([4]; 50 ng MMP3, 24 hours after pulpotomy, pulp under the amputated site): 98.5 cells/mm^2
- increase of the vascularization density versus PBS group ([4]; 50 ng MMP3, 24 hours, BS1-lectin positive area): double
- newly formed blood vessels stained with BS1-lectin under the amputated surface, in comparison with MMP3 free group ([4]; 50 ng MMP3 in spongel, 24 hours after pulpotomy): more detected
- PCNA positively staining cells, increase versus non applied group ([4]; 24 hours after pulpotomy): 2.7 times
- osteodentin formation around newly differentiated odontoblasts/osteodentinoblasts (Masson's Trichrome staining) ([4]; 72 hours after application): observed
- DSPP mRNA expression in newly differentiated odontoblasts/osteodentinoblasts (in situ hybridization) ([4]; 72 hours after pulpotomy): seen
- amount of osteodentin in comparison with non applied MMP3 (HE staining) ([4]; 72 hours after pulpotomy): larger amount
- inflammatory cell infiltration (HE staining) ([4]; 72 hours after pulpotomy): not observed
- dentin matrix formation under the amputated site, increase in comparison with PBS control group ([4]; 72 hours after pulpotomy, P<0.01): 3.8 times
- cell proliferation in the vicinity of the amputated surface [6]: a large number
- reparative dentin formation in the upper part of the amputated pulp [6]: a large quantity
- proliferation under the amputated pulp ([7]; 100 ng MMP3, 14 days): seen
- reparative dentin formation ([7]; 100 ng MMP3, 14 days): sometimes observed
- vascularization ([7]; 100 ng MMP3, 14 days): enhanced
- inflammation state of the pulp ([7]; 100 ng MMP3 in spongel, 14 days): very slight

Compound: MMP10/Stromelysin-2: MMP-10 (R&D Systems); an isomer of MMP3
- proliferative effect ([1]; MMP-10 50 ng/mL): did not have
- migration effect (HUVEC [2]; HUVEC, 50 ng/ml of MMP10): did not have
- anti-apoptotic effect (HUVEC [3]; 50 ng/ml of MMP10, staurosporine 100 nM): did not have
